Measurements reported in patent publication EP4603105A1, “PHARMACEUTICAL COMPOSITION CONTAINING CYCLIC COMPOUND HAVING SELECTIVE KRAS INHIBITORY EFFECT AGAINST HRAS AND NRAS” (CHUGAI SEIYAKU KABUSHIKI KAISHA, priority 2022, dated 2024).
Where a SMILES comes first, the peptide text is derived from it. Bridges are numbered along the chain shown (N, C = ends). [ ]: non-standard residue; d: D form. The star is where a group is joined. hPhe(3-Cl-4-CF3) = N[C@@H](CCc1ccc(C(F)(F)F)c(Cl)c1)C(=O)O; NPrPhe(4-CF3) = CCCN[C@@H](Cc1ccc(C(F)(F)F)cc1)C(=O)O; NMeGly(cPent) = CN[C@H](C(=O)O)C1CCCC1; Pro(4,4-F2) = O=C(O)[C@@H]1CC(F)(F)CN1; Pro(4,4-Me2) = CC1(C)CN[C@H](C(=O)O)C1; NMeD = CN[C@@H](CC(=O)O)C(=O)O; NMeL = CN[C@@H](CC(C)C)C(=O)O; Morpholide = C1CN(*)CCO1; Ac5c = NC1(C(=O)O)CCCC1; Aze = O=C(O)[C@@H]1CCN1; Sar = CNCC(=O)O

How the values were obtained:
[1] = tested on: human lung cancer strain NCI-H441; assay type: cell-based
Procedure, shortened: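 Step one: dispense the test compound in serial DMSO dilutions. Step three: add the reagent and measure […].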

[2] = molecular target: GDP-bound NRAS wild-type protein (Homo sapiens, UniProt P01111); assay: Binding to NRAS by surface plasmon resonance (SPR), KD and KD ratio to KRAS
Method: (§1) Surface plasmon resonance was used to analyze the binding affinity of compounds for KRAS, NRAS, and HRAS. The apparatus used was Biacore 8K, 8K+, or T200 (GE Healthcare), and the running buffer used was HBS (10 mM HEPES-NaOH, 150 mM NaCl, pH 7.4) containing 1 mM DTT, 10 mM MgCl2, 0.01% Tween 20, 10 µM GDP, and 4% DMSO.
(§2) Biotinylated Avi-tag fusion KRAS, NRAS, and HRAS proteins were expressed in E. coli BL21 (DE3) strains, and after cells were homogenized, they were purified using Streptavidin Mutein Matrix and Superdex 75. After purification, GDP-loaded KRAS, NRAS, and HRAS proteins were immobilized on the surface of Sensor Chip CAP (Cytiva) coated with Biotin CAPture Reagent in an immobilization amount of about 100 to 300 RU. Binding of each compound was evaluated by the Single Cycle Kinetics method, and a running buffer or a compound solution was added to the RAS protein non-immobilized surface and the immobilized surface to obtain a binding response. The flow rate was set to 100 µL/min, and in the compound-adding cycle, compound solutions having different concentrations were intermittently added for 75 seconds each, starting from a low concentration. […] In the blank cycle, a running buffer was intermittently added and not the compound solution. The Biotin CAPture Reagent and RAS proteins were immobilized for each cycle, and at the end of each cycle, the sensor chip was regenerated by the regeneration solution appended to the Biotin CAPture Kit (Cytiva). Measurement was carried out at 30°C.
(§3) The resulting sensorgram was subjected to curve fitting based on a 1:1 binding model on Biacore Insight Evaluation Software or T200 Evaluation Software, and thereby the dissociation constant KD of each compound with respect to KRAS, NRAS, and HRAS was determined. […] Blank indicates a compound from which the KD value with respect to NRAS or HRAS was not obtained.

[3] = molecular target: HRAS wild-type protein (Homo sapiens, UniProt P01112); assay: Binding to HRAS by surface plasmon resonance (SPR), KD and KD ratio to KRAS
Method: as §1, §2, §3

[4] = ratio of the KD value with respect to GDP-bound NRAS wild-type protein to the KD value with respect to KRAS
[5] = ratio of the KD value with respect to HRAS wild-type protein to the KD value with respect to KRAS

Chain of HRAS wild-type protein (P01112 whole entry): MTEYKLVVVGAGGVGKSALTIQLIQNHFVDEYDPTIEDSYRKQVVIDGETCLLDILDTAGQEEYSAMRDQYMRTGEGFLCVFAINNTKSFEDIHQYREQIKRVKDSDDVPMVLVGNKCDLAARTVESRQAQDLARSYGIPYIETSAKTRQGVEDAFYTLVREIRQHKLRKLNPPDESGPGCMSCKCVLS
Chain of GDP-bound NRAS wild-type protein (P01111 whole entry): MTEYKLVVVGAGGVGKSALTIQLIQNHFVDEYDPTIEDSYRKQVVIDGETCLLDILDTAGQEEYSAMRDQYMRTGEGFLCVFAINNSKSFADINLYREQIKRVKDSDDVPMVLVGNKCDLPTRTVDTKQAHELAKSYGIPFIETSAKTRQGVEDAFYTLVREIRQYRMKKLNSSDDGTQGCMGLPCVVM

Row | Compound | IC50 [1] | NRAS /KRAS [2, 4] | HRAS /KRAS [3, 5] | NRAS /KRAS ([2]; ratio of KD value for GDP-bound NRAS wild-type protein to KD value for KRAS (SPR)) | HRAS /KRAS ([3]; ratio of KD value for HRAS wild-type protein to KD value for KRAS (SPR))
1 | CCC[C@H]1C(=O)N[C@@H]([C@@H](C)CC)C(=O)N2CCC[C@H]2C(=O)N(C)[C@H]2C/C=C\CCN(C2=O)[C@@H](CC2CCCCC2)C(=O)N(C)CC(=O)N[C@@H](CCc2ccc(C(F)(F)F)c(OC)c2)C(=O)N2C[C@H](OCC)C[C@H]2C(=O)N(C)C2(CCC2)C(=O)N(C)[C@@H](C2CCCC2)C(=O)N(C)[C@H](C(=O)N(C)C)CC(=O)N1C [PP2344] | 44.9 nM | A (a compound having 10 or more and less than 20 is denoted as A) | A (a compound having 10 or more and less than 20 is denoted as A) | – | –
2 | CCC[C@H]1C(=O)N[C@@H]([C@@H](C)CC)C(=O)N(C)CC(=O)N(C)[C@H]2CCCCN(C2=O)[C@@H](Cc2ccc(C(F)(F)F)cc2)C(=O)N(C)CC(=O)N[C@@H](CCc2cc(F)c(C(F)(F)F)c(F)c2)C(=O)N2C[C@H](OCC)C[C@H]2C(=O)NC2(CCC2)C(=O)N(C)[C@@H](C2CCCC2)C(=O)N(C)[C@H](C(=O)N(C)C)CC(=O)N1C [PP0694] | 3.5 nM | C (A compound having a KD ratio of 0.1 or more and less than 3 is denoted as C) | C (A compound having a KD ratio of 0.1 or more and less than 3 is denoted as C) | – | –
3 | CCCN1C(=O)CN(C)C(=O)CN(C)C(=O)[C@H]([C@@H](C)CC)NC(=O)[C@H](CC(C)C)N(C)C(=O)C[C@@H](C(=O)N(C)C)N(C)C(=O)[C@H](C2CCCC2)N(C)C(=O)C2(CCCC2)NC(=O)[C@@H]2CC(F)(F)CN2C(=O)[C@H](CCc2ccc(C(F)(F)F)c(Cl)c2)NC(=O)CN(C)C(=O)[C@@H]1Cc1ccc(C(F)(F)F)cc1 [PP0413] ([NMeL]I[Sar][Sar][NPrPhe(4-CF3)][Sar][hPhe(3-Cl-4-CF3)][Pro(4,4-F2)][Ac5c][NMeGly(cPent)][NMeD]-NMe2; lactam N-11) | 2 nM | C (A compound having a KD ratio of 0.1 or more and less than 3 is denoted as C) | C (A compound having a KD ratio of 0.1 or more and less than 3 is denoted as C) | – | –
4 | CCCN1C(=O)[C@@H]2CCN2C(=O)CN(C)C(=O)[C@H]([C@@H](C)CC)NC(=O)[C@H](CC(C)C)N(C)C(=O)C[C@@H](C(=O)N2CCOCC2)N(C)C(=O)[C@H](C2CCCC2)N(C)C(=O)C2(CCCC2)NC(=O)[C@@H]2CC(C)(C)CN2C(=O)[C@H](CCc2ccc(C(F)(F)F)c(Cl)c2)NC(=O)CN(C)C(=O)[C@@H]1Cc1ccc(C(F)(F)F)cc1 [PP0456] ([NMeL]I[Sar][Aze][NPrPhe(4-CF3)][Sar][hPhe(3-Cl-4-CF3)][Pro(4,4-Me2)][Ac5c][NMeGly(cPent)][NMeD]-Morpholide; lactam N-11) | 7 nM | C (A compound having a KD ratio of 0.1 or more and less than 3 is denoted as C) | C (A compound having a KD ratio of 0.1 or more and less than 3 is denoted as C) | – | –
5 | CCCN(C)C(=O)[C@@H]1CC(=O)N(C)[C@@H](C(C)C)C(=O)N[C@@H]([C@@H](C)CC)C(=O)N(C)CC(=O)N(C)[C@H]2C/C=C\CCN(C2=O)[C@@H](Cc2ccc(C(F)(F)F)cc2)C(=O)N(C)CC(=O)N[C@@H](CCc2ccc(C(F)(F)F)c(OC)c2)C(=O)N2C[C@@H](C)C[C@H]2C(=O)NC2(CCC2)C(=O)N(C)[C@@H](C2CCCC2)C(=O)N1C [PP2067] | 17.7 nM | AA (a compound having 20 or more is denoted as AA) | A (a compound having 10 or more and less than 20 is denoted as A) | – | –
6 | CCC[C@H]1C(=O)N[C@@H]([C@@H](C)CC)C(=O)N(C)CC(=O)N(C)[C@H]2C/C=C\CCN(C2=O)[C@@H](Cc2ccc(C(F)(F)F)cc2)C(=O)N(C)CC(=O)N[C@@H](CCc2cc(F)c(C(F)(F)F)c(F)c2)C(=O)N2C[C@H](OCC)C[C@H]2C(=O)NC2(CC(C)(C)C2)C(=O)N(C)[C@@H](C2CCCC2)C(=O)N(C)[C@H](C(=O)N(C)CC)CC(=O)N1C [PP1646] | 2.8 nM | – | – | A (a compound having 10 or more and less than 20 is denoted as A) | A (a compound having 10 or more and less than 20 is denoted as A)
